Test results reported in patent US20250177299A1, “MOLECULAR COMPLEXING METHOD, FORMULATION AND MANUFACTURING FOR ENHANCED NUTRIENT DELIVERY” (Ingredient Fusion, LLC, priority 2021, published 2025).
Like-named read-outs stand apart in the source and are kept apart here.

Assay: long term formulation trials of natural stability and dispersion aids
Assay type: physicochemical
Text: Additionally, popular formularies like lecithin and glycerin were trialed. […] Thus, Glycerin alone was not useful to the invention disclosed herein which requires higher loading rates to achieve improved efficacy and a simplified industrially scalable process.

pectin
stability of formulation in trials: high microbial activity

OCC(O)CO [Glycerin]
stability of formulation in trials (used as stabilizing/dispersion aid in nano and micro-emulsion formulations, long term trials): very low stability unless used in very small quantities
